Test results: US6689803B2, “Compositions and methods for treating surgical adhesions” (Angiotech Pharmaceuticals, Inc., priority 1996, dated 2004)

What was measured:
[1] = tested on: neutrophils; experiment: Superoxide anion generation by neutrophils; assay type: cell-based, human; conditions: 28 μM
Protocol: All experiments that studied neutrophil responses to crystals or zymosan in the presence of paclitaxel were performed using plasma opsonized CPPD or zymosan. Opsonization of crystals or zymosan was done with 50% heparinized plasma at a concentration of 75 mg of CPPD or 12 mg of zymosan per ml of 50% plasma Crystals or zymosan were incubated with plasma for 30 minutes at 37° C. and then washed in excess HBSS.
Neutrophil viability and purity was always greater than 90%.
Superoxide anion concentrations were measured using the superoxide dismutase inhibitable reduction of cytochrome C assay. Briefly, 25 mg of crystals or 0.5 mg of zymosan was placed in a 1.5 ml capped Eppendorf tube and warmed to 37° C. 0.5 ml of cells at 37° C. were added together with ferricytochrome C (final concentration 1.2 mg/ml) and the cells were activated by shaking the capped tubes. At appropriate times tubes were centrifuged at 10,000 g for 10 seconds and the supernatant collected for assay be measuring the absorbance of 550 nm. Control tubes were set up under the same conditions with the inclusion of superoxide dismutase at 600 units per ml.

[2] = tested on: skin inflammation; experiment: Mouse ear skin inflammation (oxazolone delayed-type hypersensitivity, PMA)
Protocol: Briefly, mice were sensitized to oxazolone by topical application of the compound onto the skin. Five days later, mice were challenged with oxazolone by topical application onto the ear skin (left ear: oxazolone, right ear: vehicle alone), resulting in a cutaneous inflammatory, “delayed-type hypersensitivity” reaction. […] Epon-embedded, Giesma-stained, 1 μm tissue sections were evaluated for the presence of inflammatory cells, for the presence of tissue mast cells and their state of activation, and for the degree of epidermal hyperplasia.

For `CC(=O)O[C@H]1C(=O)[C@@]2(C)[C@H]([C@H](OC(=O)c3ccccc3)[C@]3(O)C[C@H](OC(=O)[C@H](O)[C@@H](NC(=O)c4ccccc4)c4ccccc4)C(C)=C1C3(C)C)[C@]1(OC(C)=O)CO[C@@H]1C[C@@H]2O` [paclitaxel], the “inhibition of superoxide anion production” value ([1]; opsonized zymosan) was “less dramatic than the inhibition of CPPD activation but was significant at all times”, the superoxide anion production ([1]; plasma opsonized CPPD crystals) was “decrease in the amount of superoxide generated at all times” and the skin irritation ([2]; 1% paclitaxel formulation, 20 μl to each side of the ears daily for 8 days, normal or inflamed ear skin) was “no detection of skin irritation”. For the same molecule, the “ear swelling and skin erythema induced by PMA” value ([2]; topical 1% paclitaxel formulation) was “significantly inhibited ear swelling and skin erythema” and the “ear swelling, delayed-type hypersensitivity reaction (oxazolone)” value ([2]; topical 1% paclitaxel gel versus vehicle alone) was “significant decrease in ear swelling”.
